The source of these data is US20150217004A1, “CARBAMATE COMPOUNDS AND METHODS OF USE IN DISEASES OF THE NERVOUS SYSTEM” (priority 2012, published 2015).

SMILES strings stand for the structures.

The subject of data set [1] is BuChE. Put plainly: In vitro autoradiography with human tissues (Alzheimer's disease or cognitively normal). The data set is classed as binding. As to conditions: 3.7 MBq, 18 hours at 37° C., maleate buffer pH 6.8, FIG. 3. As to the method:
Human tissue from Alzheimer's disease or cognitively normal individuals was obtained from the Maritime Brain Tissue Bank (Halifax, Canada). These tissues were adjacent […] sections through areas such as the orbitofrontal cortex. The tissues were mounted on glass slides, in maleate buffer pH 6.8, and gently heated on a slide warmer until firmly adhered. The mounted tissue was rehydrated twice for 5 min, in maleate buffer pH 6.8, before placed in a coplin jar. Nine sections occupied each jar. 25 mL of maleate buffer pH 6.8 containing Phenyl 4-([^123I]iodo)phenylcarbamate (3.7 MBq) was added to the coplin jar and the tissue incubated for 18 hours at 37° C. with gentle agitation. At the completion of incubation, the tissue was rinsed twice for 1 min in distilled water and the slides dried on a slide wanner. The tissue was exposed to a high resolution phosphorimaging screen (GE Healthcare) for 22.5 hours. The screen was scanned with a typhoon 9400 imager (GE Healthcare) to produce the autoradiogram. Image contrast was adjusted with Adobe Photoshop CS5.

The target in data set [2] is T1, human serum BuChE (Homo sapiens, UniProt P06276).
T1 construct: 0.05 units of purified human serum BuChE; from tissue; host or cells: human serum
T1 sequence (P06276 29-602): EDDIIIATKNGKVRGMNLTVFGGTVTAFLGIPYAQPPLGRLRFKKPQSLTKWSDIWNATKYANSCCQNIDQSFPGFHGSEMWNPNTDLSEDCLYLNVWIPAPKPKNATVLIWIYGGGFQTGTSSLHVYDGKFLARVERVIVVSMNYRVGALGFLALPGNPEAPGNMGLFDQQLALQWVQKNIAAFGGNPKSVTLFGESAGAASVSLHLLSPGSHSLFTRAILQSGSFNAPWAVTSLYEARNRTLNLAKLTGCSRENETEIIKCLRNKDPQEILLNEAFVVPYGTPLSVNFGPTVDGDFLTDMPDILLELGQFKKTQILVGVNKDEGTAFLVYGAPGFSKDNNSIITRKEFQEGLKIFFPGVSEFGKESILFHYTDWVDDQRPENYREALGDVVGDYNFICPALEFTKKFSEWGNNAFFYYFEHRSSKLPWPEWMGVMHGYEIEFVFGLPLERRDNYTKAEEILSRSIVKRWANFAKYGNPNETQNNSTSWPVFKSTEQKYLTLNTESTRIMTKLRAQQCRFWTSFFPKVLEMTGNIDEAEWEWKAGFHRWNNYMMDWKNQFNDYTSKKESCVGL
Briefly: Esterase activity assay (Ellman), enzyme deactivation over time, BuChE. The data set is classed as biochemical. As to conditions: FIG. 2. As to the method: (§1) The ability of the compounds to inhibit cholinesterases was evaluated by Ellman's spectrophotometric method (Ellman, G. L., Courtney, K. D., Andres, V. Jr. and Featherstone, R. M. A new and rapid colorimetric determination of acetylcholinesterase activity. Biochemical Pharmacology, 7, 88-95 (1961)) using human recombinant AChE and. acetylthiocholine as the substrate, and human serum BuChE with butyrylthiocholine as the substrate.
(§2) To test for enzyme deactivation over time, loss of enzyme activity was monitored. Briefly, 1.35 mL of buffered DTNB solution (pH 8.0), 0.05 mL of enzyme (0.03 units of human recombinant AChE or 0.05 units of purified human serum BuChE in 0.1% aqueous gelatin containing 0.01% sodium azide) and 0.05 mL of the carbamate dissolved in 50% aqueous acetonitrile at 0.5-5 mM, depending on solubility, were combined in a stoppered cuvette of 1 cm path length. After mixing and bringing the absorbance to zero, 0.05 mL of 4.8 mM aqueous acetyl- or butyrylthiocholine substrate solution was added to the cuvette after incubation of the enzyme with carbamate and buffered DTNB for periods of 30 min or longer. A zero-time sample was also obtained by adding enzyme last to initiate reaction and the second-order rate constants for enzyme deactivation (ka values) were determined. The ka value was calculated by plotting ln (e0/et)/[I] against time, where e0 is the enzymatic activity at time zero (without preincubation of enzyme and inhibitor), et is the enzymatic activity at time t min of preincubation, and [I] is the molar concentration of inhibitor. The slope of this plot gave the second-order rate constant. Experiments were generally done at least in triplicate and the values averaged.
(In Ellman's method for cholinesterases, released thiocholine reacts with DTNB.)

For data set [3], the target named is human recombinant AChE (Homo sapiens, UniProt P22303). Put plainly: Esterase activity assay (Ellman), enzyme deactivation over time, AChE. The data set is classed as biochemical. The settings on record: FIG. 2. Here is the method: as §1, §2
Sequence of human recombinant AChE (P22303 32-614): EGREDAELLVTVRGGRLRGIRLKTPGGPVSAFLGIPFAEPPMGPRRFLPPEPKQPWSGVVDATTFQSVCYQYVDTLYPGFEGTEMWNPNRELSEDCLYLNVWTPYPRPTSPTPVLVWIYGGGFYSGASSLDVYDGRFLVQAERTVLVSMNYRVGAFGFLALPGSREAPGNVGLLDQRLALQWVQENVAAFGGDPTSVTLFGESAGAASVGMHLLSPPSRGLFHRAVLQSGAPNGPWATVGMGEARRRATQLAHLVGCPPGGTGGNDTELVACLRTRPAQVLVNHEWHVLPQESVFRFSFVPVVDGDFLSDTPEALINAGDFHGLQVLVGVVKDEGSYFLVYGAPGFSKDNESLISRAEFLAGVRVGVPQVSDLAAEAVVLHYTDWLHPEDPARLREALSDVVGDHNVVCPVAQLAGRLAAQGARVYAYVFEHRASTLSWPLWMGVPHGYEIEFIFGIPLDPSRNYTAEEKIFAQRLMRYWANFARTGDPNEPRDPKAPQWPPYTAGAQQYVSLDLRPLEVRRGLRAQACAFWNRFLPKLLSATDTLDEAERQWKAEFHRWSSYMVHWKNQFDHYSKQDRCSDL

As for `O=C(Nc1ccc(F)cc1)Oc1ccccc1`, the melting point (in general, the temperature, or range, at which the solid turns liquid) was 160 to 161 °C.
In the case of `O=C(Nc1ccc([123I])cc1)Oc1ccccc1` [Phenyl 4-([^123I]iodo)phenylcarbamate], the “autoradiography: distinction of normal, normal-with-Aβ-plaques and AD brain tissue” value in data set [1] was “normal-with-Aβ-plaques and AD brain tissue can be distinguished”.
As for `O=C(Nc1ccc(I)cc1)Oc1ccccc1` [phenyl 4-(iodo)phenylcarbamate, Phenyl 4-(iodo)phenylcarbamate], in data set [2], the “effect on esterase activity (inhibition)” value is recorded as “clearly has inhibitory effects”, the “persistence of interaction (ligand bound to enzyme)” value is “persisted for hours” and the “rate of enzymatic deactivation” value is “proceeded rapidly”. Besides, in data set [3], the “effect on esterase activity (inhibition)” value is “clearly has inhibitory effects”, the “persistence of interaction (ligand bound to enzyme)” value is recorded as “persisted for hours” and the “rate of enzymatic deactivation” value is listed as “proceeded rapidly”.
